Experimental data as given in PubChem BioAssay AID2060483 (Molecular Pharmacology Branch, DTP, NCI, 2025).

System: K24384-001-R-PDC complex spheroids, viability
Test: Anticancer human tumor K24384-001-R-PDC patient-derived pancreatic adenocarcinoma cell line growth inhibition [GQUAD]
Conditions: for IC50: curve of first compound; for viability, T/C: stronger effect = lower value
Summary of the method: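 Multi-cell-type spheroids of tumor cells with HUVEC and mesenchymal stem cells, treated with drug combinations. Concentrations descend in half-log steps from near clinical Cmax, or from 10 microM where Cmax is unknown; viability read-out.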

[1] = second compound 0.0316 µM, first compound 0.0316 µM
[2] = second compound 0.0316 µM, first compound 0.316 µM
[3] = second compound 0.1 µM, first compound 0.0316 µM
[4] = second compound 0.1 µM, first compound 0.316 µM
[5] = second compound 0.316 µM, first compound 0.0316 µM
[6] = second compound 0.316 µM, first compound 0.316 µM
[7] = second compound 1 µM, first compound 0.0316 µM
[8] = second compound 1 µM, first compound 0.316 µM
[9] = second compound 3.16 µM, first compound 0.0316 µM
[10] = second compound 3.16 µM, first compound 0.316 µM
[11] = second compound 10 µM, first compound 0.0316 µM
[12] = second compound 10 µM, first compound 0.316 µM
[13] = second compound 0.0316 µM, first compound 0.1 µM
[14] = second compound 0.0316 µM, first compound 1 µM
[15] = second compound 0.0316 µM, first compound 3.16 µM
[16] = second compound 0.0316 µM, first compound 10 µM
[17] = second compound 0.1 µM, first compound 0.1 µM
[18] = second compound 0.1 µM, first compound 1 µM
[19] = second compound 0.1 µM, first compound 3.16 µM
[20] = second compound 0.1 µM, first compound 10 µM
[21] = second compound 0.316 µM, first compound 0.1 µM
[22] = second compound 0.316 µM, first compound 1 µM
[23] = second compound 0.316 µM, first compound 3.16 µM
[24] = second compound 0.316 µM, first compound 10 µM
[25] = second compound 1 µM, first compound 0.1 µM
[26] = second compound 1 µM, first compound 1 µM
[27] = second compound 1 µM, first compound 3.16 µM
[28] = second compound 1 µM, first compound 10 µM
[29] = second compound 3.16 µM, first compound 0.1 µM
[30] = second compound 3.16 µM, first compound 1 µM
[31] = second compound 3.16 µM, first compound 3.16 µM
[32] = second compound 3.16 µM, first compound 10 µM
[33] = second compound 10 µM, first compound 0.1 µM
[34] = second compound 10 µM, first compound 1 µM
[35] = second compound 10 µM, first compound 3.16 µM
[36] = second compound 10 µM, first compound 10 µM
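Also: spheroids exposed to compounds for seven days.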

Molecule `Cn1ncnc1[C@H]1c2n[nH]c(=O)c3cc(F)cc(c23)N[C@@H]1c1ccc(F)cc1` + Cc1cnc(CNC(=O)c2c(=O)c3ccc(N4CCCN(C)CC4)nc3n3c2sc2ccccc23)cn1 has an IC50 (second compound 0.0316 µM) greater than 316 nM, an IC50 (second compound 0.1 µM) greater than 316 nM and an IC50 (second compound 0.316 µM) greater than 316 nM. The IC50 (second compound 1 µM) was less than 0.999 nM, the IC50 (second compound 3.16 µM) was less than 0.999 nM and the IC50 (second compound 10 µM) was less than 0.999 nM. The viability, T/C (second compound 0.0316 µM, first compound 0.000999 µM) was 93.1%, the viability, T/C (second compound 0.0316 µM, first compound 0.00316 µM) was 80.8% and the viability, T/C (second compound 0.0316 µM, first compound 0.00999 µM) was 92.5%. The viability, T/C [1] was 81.9%, the viability, T/C (second compound 0.0316 µM, first compound 0.0999 µM) was 87.2% and the viability, T/C [2] was 105%. It also gave a viability, T/C (second compound 0.1 µM, first compound 0.000999 µM) of 69.1%, a viability, T/C (second compound 0.1 µM, first compound 0.00316 µM) of 76% and a viability, T/C (second compound 0.1 µM, first compound 0.00999 µM) of 53.6%. For the same molecule, the viability, T/C [3] was 68.6%, the viability, T/C (second compound 0.1 µM, first compound 0.0999 µM) was 72.8% and the viability, T/C [4] was 86.9%. For the same molecule, the viability, T/C (second compound 0.316 µM, first compound 0.000999 µM) was 52.5%, the viability, T/C (second compound 0.316 µM, first compound 0.00316 µM) was 63.1% and the viability, T/C (second compound 0.316 µM, first compound 0.00999 µM) was 50.6%. The viability, T/C [5] was 50.5%, the viability, T/C (second compound 0.316 µM, first compound 0.0999 µM) was 53.5% and the viability, T/C [6] was 58.1%. It also gave a viability, T/C (second compound 1 µM, first compound 0.000999 µM) of 44.6%, a viability, T/C (second compound 1 µM, first compound 0.00316 µM) of 50.3% and a viability, T/C (second compound 1 µM, first compound 0.00999 µM) of 43.6%. It also gave a viability, T/C [7] of 48.6%, a viability, T/C (second compound 1 µM, first compound 0.0999 µM) of 62.6% and a viability, T/C [8] of 42%. It also gave a viability, T/C (second compound 3.16 µM, first compound 0.000999 µM) of 43.4%, a viability, T/C (second compound 3.16 µM, first compound 0.00316 µM) of 45.2% and a viability, T/C (second compound 3.16 µM, first compound 0.00999 µM) of 43.5%. The viability, T/C [9] was 44.7%, the viability, T/C (second compound 3.16 µM, first compound 0.0999 µM) was 47.8% and the viability, T/C [10] was 39%. For the same molecule, the viability, T/C (second compound 10 µM, first compound 0.000999 µM) was 42.8%, the viability, T/C (second compound 10 µM, first compound 0.00316 µM) was 40.2% and the viability, T/C (second compound 10 µM, first compound 0.00999 µM) was 37.7%. It also gave a viability, T/C [11] of 46.3%, a viability, T/C (second compound 10 µM, first compound 0.0999 µM) of 26.6% and a viability, T/C [12] of 32.8%.

With `COc1cc(C2c3cc4c(cc3C(OC3OC5COC(C)OC5C(O)C3O)C3COC(=O)C23)OCO4)cc(OC)c1O` (stereo unspecified) + CN(C)c1ccc(Nc2c3ccc(NC(=O)CCN4CCCC4)cc3nc3cc(NC(=O)CCN4CCCC4)ccc23)cc1 the IC50 (second compound 0.0316 µM) was 958 nM, the IC50 (second compound 0.1 µM) was 836 nM and the IC50 (second compound 0.316 µM) was 762 nM. For the same molecule, the IC50 (second compound 1 µM) was 807 nM, the IC50 (second compound 3.16 µM) was 665 nM and the IC50 (second compound 10 µM) was 710 nM. The viability, T/C [1] was 105%, the viability, T/C [13] was 87.1% and the viability, T/C [2] was 79.1%. It also gave a viability, T/C [14] of 46%, a viability, T/C [15] of 36.7% and a viability, T/C [16] of 37.5%. For the same molecule, the viability, T/C [3] was 92%, the viability, T/C [17] was 99.7% and the viability, T/C [4] was 76.8%. The viability, T/C [18] was 46.3%, the viability, T/C [19] was 40.2% and the viability, T/C [20] was 41.4%. For the same molecule, the viability, T/C [5] was 94.9%, the viability, T/C [21] was 91% and the viability, T/C [6] was 76.1%. The viability, T/C [22] was 40.9%, the viability, T/C [23] was 45.3% and the viability, T/C [24] was 39.5%. For the same molecule, the viability, T/C [7] was 93.2%, the viability, T/C [25] was 95.3% and the viability, T/C [8] was 81.2%. For the same molecule, the viability, T/C [26] was 42.9%, the viability, T/C [27] was 43% and the viability, T/C [28] was 38.5%. The viability, T/C [9] was 93.8%, the viability, T/C [29] was 104% and the viability, T/C [10] was 67.7%. For the same molecule, the viability, T/C [30] was 46.8%, the viability, T/C [31] was 36.9% and the viability, T/C [32] was 37.2%. For the same molecule, the viability, T/C [11] was 94.3%, the viability, T/C [33] was 105% and the viability, T/C [12] was 60.9%. It also gave a viability, T/C [34] of 59.1%, a viability, T/C [35] of 30.8% and a viability, T/C [36] of 46.3%.

Work on `CC(C)(O)C1CCC(Nc2ccc3ncc(-c4cccc(C(F)(F)F)c4)n3n2)CC1` (stereo unspecified) + Cc1cnc(CNC(=O)c2c(=O)c3ccc(N4CCCN(C)CC4)nc3n3c2sc2ccccc23)cn1 yielded an IC50 (second compound 0.0316 µM) of 1720 nM, an IC50 (second compound 0.1 µM) of 1680 nM and an IC50 (second compound 0.316 µM) of 31.6 nM. It also gave an IC50 (second compound 1 µM) of less than 31.6 nM, an IC50 (second compound 3.16 µM) of less than 31.6 nM and an IC50 (second compound 10 µM) of less than 31.6 nM. It also gave a viability, T/C [1] of 89%, a viability, T/C [13] of 85.6% and a viability, T/C [2] of 90.3%. The viability, T/C [14] was 69.2%, the viability, T/C [15] was 26.6% and the viability, T/C [16] was 30.2%. For the same molecule, the viability, T/C [3] was 55.6%, the viability, T/C [17] was 75.8% and the viability, T/C [4] was 72.7%. For the same molecule, the viability, T/C [18] was 76.4%, the viability, T/C [19] was 22.4% and the viability, T/C [20] was 28.3%. The viability, T/C [5] was 42.4%, the viability, T/C [21] was 49.8% and the viability, T/C [6] was 46%. The viability, T/C [22] was 60.9%, the viability, T/C [23] was 28.8% and the viability, T/C [24] was 28.1%. The viability, T/C [7] was 37.1%, the viability, T/C [25] was 53% and the viability, T/C [8] was 36.4%. The viability, T/C [26] was 42.4%, the viability, T/C [27] was 22.3% and the viability, T/C [28] was 15.1%. For the same molecule, the viability, T/C [9] was 30.4%, the viability, T/C [29] was 40.3% and the viability, T/C [10] was 36.9%. For the same molecule, the viability, T/C [30] was 37.7%, the viability, T/C [31] was 0.14% and the viability, T/C [32] was 0.16%. It also gave a viability, T/C [11] of 12.8%, a viability, T/C [33] of 12.9% and a viability, T/C [12] of 5.01%. It also gave a viability, T/C [34] of 0.25%, a viability, T/C [35] of 0.24% and a viability, T/C [36] of 0.23%.
